“And” between values parts separate entries of the source, which are not always exact repeats. Equal entries are not always repeated. ± gives the expanded uncertainty stated by the source.
Conditions: 343.15 K, Liquid, Vibrating tube method

CCCCCC(=O)OCC(COC(=O)CCCCC)(COC(=O)CCCCC)COC(=O)CCCCC [pentaerythritol tetrahexanoate]
Conditions	mass density
398.2 kPa	957.4 ± 1.2 kg/m3
398.4 kPa	957.4 ± 1.2 kg/m3
399.3 kPa	957.3 ± 1.2 kg/m3
399.8 kPa	957.5 ± 1.2 kg/m3
400.1 kPa	957.4 ± 1.2 kg/m3
400.6 kPa	957.2 ± 1.2 kg/m3
400.8 kPa	957.4 ± 1.2 kg/m3
401.5 kPa	957.5 ± 1.2 kg/m3
402 kPa	957.5 ± 1.2 kg/m3
402.4 kPa	957.3 ± 1.2 kg/m3
402.9 kPa	957.6 ± 1.2 kg/m3
403.4 kPa	957.4 ± 1.2 kg/m3
403.9 kPa	957.4 ± 1.2 kg/m3
404.3 kPa	957.5 ± 1.2 kg/m3
404.8 kPa	957.4 ± 1.2 kg/m3
407.4 kPa	957.3 ± 1.2 kg/m3
407.9 kPa	957.4 ± 1.2 kg/m3
408.6 kPa	957.4 ± 1.2 kg/m3
409 kPa	957.3 ± 1.2 kg/m3
409.2 kPa	957.4 ± 1.2 kg/m3
409.9 kPa	957.3 ± 1.2 kg/m3
410.4 kPa	957.3 ± 1.2 kg/m3
413 kPa	957.4 ± 1.2 kg/m3
413.5 kPa	957.5 ± 1.2 kg/m3
413.9 kPa	957.4 ± 1.2 kg/m3
414.4 kPa	957.4 ± 1.2 kg/m3
414.9 kPa	957.3 ± 1.2 kg/m3
415.1 kPa	957.5 ± 1.2 kg/m3
418 kPa	957.4 ± 1.2 kg/m3
418.5 kPa	957.5 ± 1.2 kg/m3
419.6 kPa	957.4 ± 1.2 kg/m3
419.8 kPa	957.4 ± 1.2 kg/m3
420.3 kPa	957.3 ± 1.2 kg/m3
421.3 kPa	957.3 ± 1.2 kg/m3
421.5 kPa	957.3 ± 1.2 kg/m3
423.4 kPa	957.3 ± 1.2 kg/m3
423.9 kPa	957.3 ± 1.2 kg/m3
424.1 kPa	957.4 ± 1.2 kg/m3
425.1 kPa	957.3 ± 1.2 kg/m3
425.5 kPa	957.4 ± 1.2 kg/m3
425.7 kPa	957.4 ± 1.2 kg/m3
426.2 kPa	957.4 ± 1.2 kg/m3
426.7 kPa	957.3 ± 1.2 kg/m3
427.2 kPa	957.3 ± 1.2 kg/m3
427.9 kPa	957.5 ± 1.2 kg/m3
428.4 kPa	957.4 ± 1.2 kg/m3
429 kPa	957.5 ± 1.2 kg/m3
429.5 kPa	957.4 ± 1.2 kg/m3
429.8 kPa	957.5 ± 1.2 kg/m3
430.4 kPa	957.5 ± 1.2 kg/m3
430.9 kPa	957.4 ± 1.2 kg/m3
431.6 kPa	957.4 ± 1.2 kg/m3 and 957.5 ± 1.2 kg/m3
431.9 kPa	957.5 ± 1.2 kg/m3
432.6 kPa	957.4 ± 1.2 kg/m3
432.8 kPa	957.5 ± 1.2 kg/m3
433 kPa	957.3 ± 1.2 kg/m3
435 kPa	957.5 ± 1.2 kg/m3
437.5 kPa	957.5 ± 1.2 kg/m3
440.8 kPa	957.4 ± 1.2 kg/m3
443.6 kPa	957.3 ± 1.2 kg/m3
446.3 kPa	957.4 ± 1.2 kg/m3
449.5 kPa	957.5 ± 1.2 kg/m3
452.2 kPa	957.5 ± 1.2 kg/m3
455.6 kPa	957.4 ± 1.2 kg/m3
458.5 kPa	957.4 ± 1.2 kg/m3
461.8 kPa	957.4 ± 1.2 kg/m3
464.6 kPa	957.3 ± 1.2 kg/m3
468.2 kPa	957.4 ± 1.2 kg/m3
471.5 kPa	957.4 ± 1.2 kg/m3
474.8 kPa	957.4 ± 1.2 kg/m3
477.4 kPa	957.5 ± 1.2 kg/m3
481.3 kPa	957.6 ± 1.2 kg/m3
484.6 kPa	957.4 ± 1.2 kg/m3
487.7 kPa	957.3 ± 1.2 kg/m3
491.5 kPa	957.4 ± 1.2 kg/m3
525.8 kPa	957.3 ± 1.2 kg/m3
529.4 kPa	957.6 ± 1.2 kg/m3
533.4 kPa	957.5 ± 1.2 kg/m3
538.1 kPa	957.5 ± 1.2 kg/m3
545.9 kPa	957.4 ± 1.2 kg/m3
550.2 kPa	957.6 ± 1.2 kg/m3
555.3 kPa	957.6 ± 1.2 kg/m3
559.3 kPa	957.5 ± 1.2 kg/m3
564 kPa	957.5 ± 1.2 kg/m3
569 kPa	957.5 ± 1.2 kg/m3
573.7 kPa	957.5 ± 1.2 kg/m3
578 kPa	957.5 ± 1.2 kg/m3
584 kPa	957.6 ± 1.2 kg/m3
588.1 kPa	957.6 ± 1.2 kg/m3
593 kPa	957.5 ± 1.2 kg/m3
603.9 kPa	957.5 ± 1.2 kg/m3
609 kPa	957.6 ± 1.2 kg/m3
614.9 kPa	957.5 ± 1.2 kg/m3
620.1 kPa	957.6 ± 1.2 kg/m3
625 kPa	957.5 ± 1.2 kg/m3
631.2 kPa	957.5 ± 1.2 kg/m3
636.6 kPa	957.6 ± 1.2 kg/m3
641.6 kPa	957.6 ± 1.2 kg/m3
647 kPa	957.7 ± 1.2 kg/m3
653.6 kPa	957.6 ± 1.2 kg/m3
659.4 kPa	957.5 ± 1.2 kg/m3
666.5 kPa	957.5 ± 1.2 kg/m3
672.6 kPa	957.7 ± 1.2 kg/m3
678.3 kPa	957.5 ± 1.2 kg/m3
684.7 kPa	957.7 ± 1.2 kg/m3
691 kPa	957.6 ± 1.2 kg/m3
697.2 kPa	957.5 ± 1.2 kg/m3
704.9 kPa	957.6 ± 1.2 kg/m3
711.5 kPa	957.6 ± 1.2 kg/m3
719.3 kPa	957.5 ± 1.2 kg/m3
725.9 kPa	957.6 ± 1.2 kg/m3
732.7 kPa	957.6 ± 1.2 kg/m3
739.6 kPa	957.6 ± 1.2 kg/m3
747.6 kPa	957.6 ± 1.2 kg/m3
786 kPa	957.7 ± 1.2 kg/m3
793.7 kPa	957.6 ± 1.2 kg/m3
801.8 kPa	957.7 ± 1.2 kg/m3
809.8 kPa	957.8 ± 1.2 kg/m3
818 kPa	957.6 ± 1.2 kg/m3
828.1 kPa	957.7 ± 1.2 kg/m3
836.4 kPa	957.7 ± 1.2 kg/m3
845.3 kPa	957.6 ± 1.2 kg/m3
855.7 kPa	957.8 ± 1.2 kg/m3
864.5 kPa	957.8 ± 1.2 kg/m3
873.7 kPa	957.7 ± 1.2 kg/m3
883.3 kPa	957.6 ± 1.2 kg/m3
894.6 kPa	957.6 ± 1.2 kg/m3
904.5 kPa	957.9 ± 1.2 kg/m3
915.8 kPa	957.7 ± 1.2 kg/m3
967 kPa	957.8 ± 1.2 kg/m3
977.1 kPa	957.8 ± 1.2 kg/m3
989.1 kPa	957.8 ± 1.2 kg/m3
999.5 kPa	957.8 ± 1.2 kg/m3
1011.5 kPa	957.9 ± 1.2 kg/m3
1022.2 kPa	957.7 ± 1.2 kg/m3
1032.7 kPa	958 ± 1.2 kg/m3
1043.4 kPa	957.9 ± 1.2 kg/m3
1053.7 kPa	957.9 ± 1.2 kg/m3
1066.4 kPa	958 ± 1.2 kg/m3
1076.6 kPa	957.9 ± 1.2 kg/m3
1087.5 kPa	957.9 ± 1.2 kg/m3
1100.4 kPa	957.8 ± 1.2 kg/m3
1110.6 kPa	958 ± 1.2 kg/m3
1121.6 kPa	957.9 ± 1.2 kg/m3
